Results: patent US8436043B2 (Takeda Pharmaceutical Company Limited, priority 2008, dated 2013)

Biological target: T1, human glucagon receptor (Homo sapiens, UniProt P47871)
T1 construct: made in house; host or cells: FreeStyle CHO cells, transient transfection with pMSRαneo/hGCGR; membrane fraction (35,000 rpm pellet)
Assay: Glucagon binding inhibitory activity ([125I]-glucagon binding to glucagon receptor membrane protein)
Details: human glucagon receptor membrane protein, [125I]-glucagon, 90 min room temperature
How it was run: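 Receptor source was a membrane fraction of transiently transfected CHO cells bearing human receptor; 90 min room-temperature binding, filtration harvest, scintillation counting.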

T1 sequence (P47871 26-477): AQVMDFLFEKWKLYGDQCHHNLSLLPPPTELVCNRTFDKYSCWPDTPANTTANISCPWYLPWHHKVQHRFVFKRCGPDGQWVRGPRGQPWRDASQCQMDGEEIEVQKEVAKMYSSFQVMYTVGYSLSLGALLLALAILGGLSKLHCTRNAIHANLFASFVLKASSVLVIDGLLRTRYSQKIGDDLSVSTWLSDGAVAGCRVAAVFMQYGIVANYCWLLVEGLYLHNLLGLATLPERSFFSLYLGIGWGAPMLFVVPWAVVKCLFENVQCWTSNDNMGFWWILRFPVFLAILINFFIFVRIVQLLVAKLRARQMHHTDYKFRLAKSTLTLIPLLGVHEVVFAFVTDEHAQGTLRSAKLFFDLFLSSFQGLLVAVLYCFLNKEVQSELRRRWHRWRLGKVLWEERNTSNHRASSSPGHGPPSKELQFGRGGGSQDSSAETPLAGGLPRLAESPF

IC50 [nM] | Compound
210 | O=C(O)CCNC(=O)c1ccc(NC(c2cc3ccc(C(F)(F)F)cc3s2)C2CCCCC2)cc1 (centres unmarked) [Example A12, 3-({[4-({cyclohexyl[6-(trifluoromethyl)-1-benzothiophen-2-yl]methyl}amino)phenyl]carbonyl}amino)propanoic acid]

Same assay, conditions: test compound 10 μM; 0.4% DMSO = 0%, non-labeled glucagon 1 μM = 100%

inhibitory rate (%) at 10 μM [%] | Compound
89 | Cc1c(C(Nc2ccc(C(=O)N(C)CCC(=O)O)cc2)C2CCCC2)oc2ccc(F)cc12 (centres unmarked) [Example A69]
85 | Cc1c(C(Nc2ccc(C(=O)N(C)CCC(=O)O)nc2)C2CCCCC2)oc2ccc(F)cc12 (centres unmarked) [Example A57]

Same assay, conditions: test compound 10 μM; 0.4% DMSO = 0%, non-labeled glucagon 1 μM = 100%; read-out: inhibitory rate (%) at 10 μM

Compound | inhibition at 10 µM [%]
COCc1nn(-c2cc(C(F)(F)F)ccn2)cc1C(Nc1ccc(C(=O)N(C)CCC(=O)O)cc1)C1CCCCC1 (centres unmarked) [Example 89, 3-[({4-[(cyclohexyl{3-(methoxymethyl)-1-[4-(trifluoromethyl)pyridin-2-yl]-1H-pyrazol-4-yl}methyl)amino]phenyl}carbonyl)(methyl)amino]propanoic acid] | 62
Cc1c(C(Nc2ccc(C(=O)N(C)CCC(=O)O)cn2)C(C)C)oc2ccc(OCC3CC3)cc12 (centres unmarked) [Example A211, 3-[{[6-({1-[5-(cyclopropylmethoxy)-3-methyl-1-benzofuran-2-yl]-2-methylpropyl}amino)pyridin-3-yl]carbonyl}(methyl)amino]propanoic acid] | 70
Cc1nn(-c2ccc(C(F)(F)F)cc2)cc1C(Nc1ccc(C(=O)NCCC(=O)O)cc1)C1CCCCC1 (centres unmarked) [Example 27, 3-[({4-[(cyclohexyl{3-methyl-1-[4-(trifluoromethyl)phenyl]-1H-pyrazol-4-yl}methyl)amino]phenyl}carbonyl)amino]propanoic acid] | 70
CCCCCCC(Nc1ccc(C(=O)N(C)CCC(=O)O)cc1)c1cc2cc(Cl)ccc2n1-c1cccc(C(F)(F)F)c1 (centres unmarked) [Example A107, 3-[({4-[(1-{5-chloro-1-[3-(trifluoromethyl)phenyl]-1H-indol-2-yl}heptyl)amino]phenyl}carbonyl)(methyl)amino]propanoic acid] | 74
COc1ccc(-n2cc(C(Nc3ccc(C(=O)N(C)CCC(=O)O)cc3)C3CCCCC3)c(C3CC3)n2)cc1 (centres unmarked) [Example 47, 3-[{[4-({cyclohexyl[3-cyclopropyl-1-(4-methoxyphenyl)-1H-pyrazol-4-yl]methyl}amino)phenyl]carbonyl}(methyl)amino]propanoic acid] | 66
CC(C)c1nn(-c2ccc(C(F)(F)F)cn2)cc1C(Nc1ccc(C(=O)NCCC(=O)O)cc1)C1CCCCC1 (centres unmarked) [Example 7, 3-[({4-[(cyclohexyl{3-(1-methylethyl)-1-[5-(trifluoromethyl)pyridin-2-yl]-1H-pyrazol-4-yl}methyl)amino]phenyl}carbonyl)amino]propanoic acid] | 72
Cc1c(C(Nc2ccc(C(=O)N(C)CCC(=O)O)nc2)C(C)C)oc2ccc(OCC3CC3)cc12 (centres unmarked) [Example A213, 3-[{[5-({1-[5-(cyclopropylmethoxy)-3-methyl-1-benzofuran-2-yl]-2-methylpropyl}amino)pyridin-2-yl]carbonyl}(methyl)amino]propanoic acid] | 70
Cc1c(C(CC(C)C)Nc2ccc(C(=O)NCCC(=O)O)cc2)oc2ccccc12 (centres unmarked) [Example A23, 3-{[(4-{[3-methyl-1-(3-methyl-1-benzofuran-2-yl)butyl]amino}phenyl)carbonyl]amino}propanoic acid] | 77
COc1ccc2oc(C(CCCCSC)Nc3ccc(C(=O)NCCC(=O)O)cc3)c(C)c2c1 (centres unmarked) [Example A120, 3-{[(4-{[1-(5-methoxy-3-methyl-1-benzofuran-2-yl)-5-(methylsulfanyl)pentyl]amino}phenyl)carbonyl]amino}propanoic acid] | 73
O=C(O)CCNC(=O)c1ccc(NC(c2cc3ccc(C(F)(F)F)cc3s2)C2CCCCC2)cc1 (centres unmarked) [Example A12, 3-({[4-({cyclohexyl[6-(trifluoromethyl)-1-benzothiophen-2-yl]methyl}amino)phenyl]carbonyl}amino)propanoic acid] | 72
CCC(CC)C(Nc1ccc(C(=O)NCCC(=O)O)cc1)c1oc2ccc(OC)cc2c1C (centres unmarked) [Example A104, 3-{[(4-{[2-ethyl-1-(5-methoxy-3-methyl-1-benzofuran-2-yl)butyl]amino}phenyl)carbonyl]amino}propanoic acid] | 68
COCc1nn(-c2ccc(C(F)(F)F)cn2)cc1C(Nc1ccc(C(=O)N(C)CCC(=O)O)cc1)C1CCCCC1 (centres unmarked) [Example 30, 3-[({4-[(cyclohexyl{3-(methoxymethyl)-1-[5-(trifluoromethyl)pyridin-2-yl]-1H-pyrazol-4-yl}methyl)amino]phenyl}carbonyl)(methyl)amino]propanoic acid] | 75
COCc1nn(-c2ccc(OC(F)(F)F)cc2)cc1C(Nc1ccc(C(=O)NCCC(=O)O)cc1)C1CCCCC1 (centres unmarked) [Example 33, 3-[({4-[(cyclohexyl{3-(methoxymethyl)-1-[4-(trifluoromethoxy)phenyl]-1H-pyrazol-4-yl}methyl)amino]phenyl}carbonyl)amino]propanoic acid] | 75

Results, then the molecule that gave them:

inhibition at 10 µM [%] | Compound
98 | COc1ccc(-c2ccc3oc(C(Nc4ccc(C(=O)N(C)CCC(=O)O)cc4)C4CCCCC4)c(C)c3c2)cn1 (centres unmarked) [Example A174, 3-[{[4-({cyclohexyl[5-(6-methoxypyridin-3-yl)-3-methyl-1-benzofuran-2-yl]methyl}amino)phenyl]carbonyl}(methyl)amino]propanoic acid]
70 | Cc1c(C(Nc2ccc(C(=O)N(C)CCC(=O)O)cc2)C2CCCCC2)oc2ccc(NS(C)(=O)=O)cc12 (centres unmarked) [Example A111, 3-[({4-[(cyclohexyl{3-methyl-5-[(methylsulfonyl)amino]-1-benzofuran-2-yl}methyl)amino]phenyl}carbonyl)(methyl)amino]propanoic acid]
80 | Cc1c(C(Nc2ccc(C(=O)N(C)CCC(=O)O)cc2)C2CCCCC2)oc2ccc(OCc3ccncc3)cc12 (centres unmarked) [Example A157, 3-[{[4-({cyclohexyl[3-methyl-5-(pyridin-4-ylmethoxy)-1-benzofuran-2-yl]methyl}amino)phenyl]carbonyl}(methyl)amino]propanoic acid]
59 | COc1ccc2oc(C(CCCCSC)Nc3ccc(C(=O)N(C)CCC(=O)O)cc3)c(C)c2c1 (centres unmarked) [Example A121, 3-{[(4-{[1-(5-methoxy-3-methyl-1-benzofuran-2-yl)-5-(methylsulfanyl)pentyl]amino}phenyl)carbonyl](methyl)amino}-propanoic acid]
82 | Cc1c(C(Nc2ccc(C(=O)N(C)CCC(=O)O)cc2)C2CCCC2)oc2ccc(F)cc12 (centres unmarked) [Example A68, 3-{[(4-{[cyclopentyl(5-fluoro-3-methyl-1-benzofuran-2-yl)methyl]amino}phenyl)carbonyl](methyl)amino}propanoic acid]
71 | Cc1nn(-c2cccc(Cl)c2)cc1C(Nc1ccc(C(=O)N(C)CCC(=O)O)cc1)C1CCCCC1 (centres unmarked) [Example 71, 3-[{[4-({[1-(3-chlorophenyl)-3-methyl-1H-pyrazol-4-yl](cyclohexyl)methyl}amino)phenyl]carbonyl}(methyl)amino]-propanoic acid]
82 | Cc1c(C(Nc2ccc(C(=O)N(C)CCC(=O)O)cc2)C2CCCCC2)oc2ccc(NC(=O)c3ccccc3)cc12 (centres unmarked) [Example A129, 3-[({4-[(cyclohexyl{3-methyl-5-[(phenylcarbonyl)amino]-1-benzofuran-2-yl]methyl)amino}phenyl]carbonyl)(methyl)amino}propanoic acid]
74 | COCCOc1ccc2oc(C(Nc3ccc(C(=O)N(C)CCC(=O)O)cc3)C(C)C)c(C)c2c1 (centres unmarked) [Example A173, 3-[{[4-({1-[5-(2-methoxyethoxy)-3-methyl-1-benzofuran-2-yl]-2-methylpropyl}amino)phenyl]carbonyl}(methyl)amino]propanoic acid]
68 | COCc1nn(-c2cccc(OC)c2)cc1C(Nc1ccc(C(=O)N(C)CCC(=O)O)cc1)C1CCCCC1 (centres unmarked) [Example 76]
81 | CSCCCOc1ccc2oc(C(Nc3ccc(C(=O)N(C)CCC(=O)O)cc3)C3CCCCC3)c(C)c2c1 (centres unmarked) [Example A150, 3-[({4-[(cyclohexyl{3-methyl-5-[3-(methylsulfanyl)propoxy]-1-benzofuran-2-yl}methyl)amino]phenyl}carbonyl)(methyl)amino]propanoic acid]
68 | Cc1c(C(Nc2ccc(C(=O)N(C)CCC(=O)O)cc2)C(C)C)oc2cccc(F)c12 (centres unmarked) [Example A175, 3-{[(4-{[1-(4-fluoro-3-methyl-1-benzofuran-2-yl)-2-methylpropyl]amino}phenyl)carbonyl](methyl)amino}propanoic acid]
76 | Cc1c(C(Nc2ccc(C(=O)N(C)CCC(=O)O)cc2)C2CCCCC2)sc2ccncc12 (centres unmarked) [Example A139, 3-{[(4-{[cyclohexyl(3-methylthieno[3,2-c]pyridin-2-yl)methyl]amino}phenyl)carbonyl](methyl)amino}propanoic acid]
86 | Cc1c(C(Nc2ccc(C(=O)N(C)CCC(=O)O)cc2)C2CCCCC2)oc2ccc(Oc3ccc(C#N)cn3)cc12 (centres unmarked) [Example A202, 3-{[(4-{[{5-[(5-cyanopyridin-2-yl)oxy]-3-methyl-1-benzofuran-2-yl}(cyclohexyl)methyl]amino}phenyl)carbonyl](methyl)amino}-propanoic acid]
83 | COCCOCc1c(C(Nc2ccc(C(=O)NCCC(=O)O)cc2)C2CCCCC2)oc2ccc(F)cc12 (centres unmarked) [Example A132, 3-[({4-[(cyclohexyl{5-fluoro-3-[(2-methoxyethoxy)methyl]-1-benzofuran-2-yl}methyl)amino]phenyl}carbonyl)amino]propanoic acid]
81 | Cc1c(C(Nc2ccc(C(=O)N(C)CCC(=O)O)cc2)C2CCCCC2)oc2ccc(OCc3ccccn3)cc12 (centres unmarked) [Example A155, 3-[{[4-({cyclohexyl[3-methyl-5-(pyridin-2-ylmethoxy)-1-benzofuran-2-yl]methyl}amino)phenyl]carbonyl}(methyl)amino]propanoic acid]
60 | COc1ccc2oc(C(Nc3ccc(C(=O)N(C)CCC(=O)O)cc3)C3CCCCC3)cc2c1 (centres unmarked) [Example A25, 3-{[(4-{[cyclohexyl(5-methoxy-1-benzofuran-2-yl)methyl]amino}phenyl)carbonyl](methyl)amino}propanoic acid]
